Source: US20250107513A1, “METHOD FOR COUNTING EMBRYOS DEVELOPING IN A UTERUS OF CAENORHABDITIS ELEGANS” (Shanghai University, priority 2022, published 2025)

Test system: Caenorhabditis elegans
Assay: counting embryos developing in the uterus of Caenorhabditis elegans after TPHP exposure
Type: in vivo
Conditions: then cultured until pregnancy, relative to the control group, p<0.01
Method: As shown in a flowchart (FIG. 1) of a method in the present invention, this embodiment provides a method for counting embryos developing in a uterus of Caenorhabditis elegans exposed to a chemical of triphenyl phosphate (TPHP) for 72 hours, specifically including the following steps:
Step 5: Subject Caenorhabditis elegans to synchronization treatment. Nematode eggs are added dropwise to the NGM medium containing no E. coli, the nematode eggs are cultured at 20° C. for 16 to 20 hours under dark conditions, where Caenorhabditis elegans are in the L1 stage, and Caenorhabditis elegans at the stage are rinsed into a 1.5 mL centrifuge tube with the K solution 3 times.
Step 6: Prepare exposure solutions. 0.1000 g of TPHP solid is weighed accurately, the TPHP solid is dissolved in dimethyl sulfoxide until a concentration reaches 10 g/L, and then TPHP solutions are diluted with dimethyl sulfoxide again until concentrations reach 10 mg/L, 100 mg/L, 1000 mg/L and 5000 mg/L to be used as mother liquors later. Dimethyl sulfoxide is used as the mother liquor of the blank control group. The mother liquors are further diluted by 100 folds with the K solution and then diluting the diluted mother liquors by 100 folds with a K+ solution to finally obtain exposure solutions of Caenorhabditis elegans containing 0 μg/L (control group), 1 μg/L, 10 μg/L, 100 μg/L and 500 μg/L TPHP.
Step 7: Expose Caenorhabditis elegans to a TPHP solution. A prepared TPHP exposure solution is added to a sterile 6-well plate with 5 mL of prepared TPHP exposure solution per well. Caenorhabditis elegans at the L1 stage are then evenly added to the 6-well plate after the synchronization treatment, Caenorhabditis elegans are fed with 100 μg/L E. coli daily, and Caenorhabditis elegans are cultured for 72 hours.
Step 8: Select Caenorhabditis elegans at an exposure stage. The method in the present invention is applicable to pregnant Caenorhabditis elegans, and this is because Caenorhabditis elegans are […] after being exposed to TPHP for 72 hours. […]
Step 11: Count embryos in the uterus of Caenorhabditis elegans. The 24-well plate containing transparent Caenorhabditis elegans is put under an optical stereomicroscope, and exposed embryos of each Caenorhabditis elegans are counted, where exposed embryos of at least 25 nematodes are counted in each treatment group.
Step 12: Analyze data. Data is analyzed by using SPSS software, a confidence interval of samples is set to 95%, and an intra-group mean and mean error of the numbers of embryos developing in nematodes in different treatment groups are calculated, where the data can be selectively in a format of a mean percentage or multiple based on requirements of the experiment. […]

`O=P(Oc1ccccc1)(Oc1ccccc1)Oc1ccccc1` [TPHP, triphenyl phosphate] was tested, and the “decrease in the numbers of embryos in the uteri” value (from here on “decrease in the numbers”) (exposure to 1 μg/L TPHP from L1 stage for 72 hours) was 14.2%, the “decrease in the numbers” value (exposure to 10 μg/L TPHP from L1 stage for 72 hours) was 18.2% and the “decrease in the numbers” value (exposure to 100 μg/L TPHP from L1 stage for 72 hours) was 18.1%. For the same molecule, the “decrease in the numbers” value (exposure to 500 μg/L TPHP from L1 stage for 72 hours) was 21.8%.
